Source: US20220251141A1, “IMMUNOMODULATORS” (Bristol-Myers Squibb Company, priority 2019, published 2022)
Bridge positions count the residues as written; N and C are the ends. Square brackets hold non-standard residues; d marks the D form. Peptide text beside a SMILES is read from it. * marks the point of attachment. Trp(1-CH2COOH) = N[C@@H](Cc1cn(CC(=O)O)c2ccccc12)C(=O)O; Trp(1-Me) = Cn1cc(C[C@H](N)C(=O)O)c2ccccc21; Phe(4-F) = N[C@@H](Cc1ccc(F)cc1)C(=O)O; Hyp = O=C(O)[C@@H]1C[C@@H](O)CN1; NMeNle = CCCC[C@H](NC)C(=O)O; Pen = CC(C)(S)[C@H](N)C(=O)O; Pip = O=C(O)[C@@H]1CCCCN1; Dab = NCC[C@H](N)C(=O)O; Dap = NC[C@H](N)C(=O)O; Boc = CC(C)(C)OC(=O)*; Piv = CC(C)(C)C(=O)*

Target: T1, PD-1/PD-L1 (Homo sapiens, UniProt Q9NZQ7)
T1 construct: TVMV protease site linker (C); made in house; host or cells: HEK293T cells
Experiment: PD-1/PD-L1 Homogenous Time-Resolved Fluorescence (HTRF) binding assay
Settings: PD-L1-His 10 nM final, PD-1-Ig 20 nM final; inhibitors pre-incubated with PD-L1-His for 15 m
How it was run: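 Compounds pre-incubated 15 min with human PD-L1(18-239)-His (10 nM final), then PD-1(25-167)-Ig (20 nM final) added for 15 min, in dPBS with 0.1% BSA and 0.05% Tween-20. Eu-cryptate anti-Ig (1 nM) and APC anti-His (20 nM) added, 30 min equilibration, 665/620 nm ratio read; IC50 reported.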

Compound | IC50 [nM]
CCCC[C@H]1C(=O)N(C)[C@@H](CCCC)C(=O)N[C@@H](CCC(=O)O)C(=O)N[C@H](C(N)=O)CSCC(=O)N[C@@H](Cc2ccc(F)cc2)C(=O)N2CCCC[C@H]2C(=O)N[C@@H](CC(N)=O)C(=O)N2CCC[C@H]2C(=O)N[C@@H](CNC(=O)C(C)(C)C)C(=O)N[C@@H](CC(C)C)C(=O)N2C[C@H](O)C[C@H]2C(=O)N[C@@H](Cc2c[nH]c3ccccc23)C(=O)N[C@@H](CCNC(=O)C(C)(C)C)C(=O)N[C@@H](Cc2cn(CC(=O)O)c3ccccc23)C(=O)N1C [Example 20030] ({CH2CO}-[Phe(4-F)][Pip]NP[Dap](Piv)L[Hyp]W[Dab](Piv)[Trp(1-CH2COOH)][NMeNle][NMeNle]EC-NH2; thioether N-14) | 7.8
CCCC[C@H]1C(=O)N(C)[C@@H](CCCC)C(=O)N[C@@H](CC(C)C)C(=O)N[C@H](C(N)=O)C(C)(C)SCC(=O)N[C@@H](Cc2ccc(F)cc2)C(=O)N2CCCC[C@H]2C(=O)N[C@@H](CC(=O)O)C(=O)N2CCC[C@H]2C(=O)N[C@@H](CNC(=O)C(C)(C)C)C(=O)N[C@@H](CC(C)C)C(=O)N2C[C@H](O)C[C@H]2C(=O)N[C@@H](Cc2c[nH]c3ccccc23)C(=O)N[C@@H](CCN)C(=O)N[C@@H](Cc2cn(CC(=O)O)c3ccccc23)C(=O)N1C [Example 20060] ({CH2CO}-[Phe(4-F)][Pip]DP[Dap](Piv)L[Hyp]W[Dab][Trp(1-CH2COOH)][NMeNle][NMeNle]L[Pen]-NH2; thioether N-14) | 10.4
CCCC[C@H]1C(=O)N(C)[C@@H](CCCC)C(=O)N[C@@H](C(C)C)C(=O)N[C@H](C(N)=O)CSCC(=O)N[C@@H](Cc2ccc(F)cc2)C(=O)N2CCCC[C@H]2C(=O)N[C@@H](CC(=O)O)C(=O)N2CCC[C@H]2C(=O)N[C@@H](CNC(=O)C(C)(C)C)C(=O)N[C@@H](CCCCN)C(=O)N2C[C@H](O)C[C@H]2C(=O)N[C@@H](Cc2c[nH]c3ccccc23)C(=O)N[C@@H](CCNC(=O)C(C)(C)C)C(=O)N[C@@H](Cc2cn(CC(=O)O)c3ccccc23)C(=O)N1C [Example 20080] ({CH2CO}-[Phe(4-F)][Pip]DP[Dap](Piv)K[Hyp]W[Dab](Piv)[Trp(1-CH2COOH)][NMeNle][NMeNle]VC-NH2; thioether N-14) | 10.7
CCCC[C@H]1C(=O)N(C)[C@@H](CCCC)C(=O)N[C@@H](CCC(=O)O)C(=O)N[C@H](C(N)=O)CSCC(=O)N[C@@H](Cc2ccc(F)cc2)C(=O)N2CCCC[C@H]2C(=O)N[C@@H](CC(N)=O)C(=O)N2CCC[C@H]2C(=O)N[C@@H](CNC(=O)C(C)(C)C)C(=O)N[C@@H](CC(C)C)C(=O)N2CCC[C@H]2C(=O)N[C@@H](Cc2c[nH]c3ccccc23)C(=O)N[C@@H](CCN)C(=O)N[C@@H](Cc2cn(CC(=O)O)c3ccccc23)C(=O)N1C [Example 20110] ({CH2CO}-[Phe(4-F)][Pip]NP[Dap](Piv)LPW[Dab][Trp(1-CH2COOH)][NMeNle][NMeNle]EC-NH2; thioether N-14) | 11.7
CCCC[C@H]1C(=O)N(C)[C@@H](CCCC)C(=O)N[C@@H](CC(C)C)C(=O)N[C@H](C(N)=O)C(C)(C)SCC(=O)N[C@@H](Cc2ccc(F)cc2)C(=O)N2CCCC[C@H]2C(=O)N[C@@H](CC(N)=O)C(=O)N2CCC[C@H]2C(=O)N[C@@H](CNC(=O)C(C)(C)C)C(=O)N[C@@H](CC(C)C)C(=O)N2C[C@H](O)C[C@H]2C(=O)N[C@@H](Cc2c[nH]c3ccccc23)C(=O)N[C@@H](CCN)C(=O)N[C@@H](Cc2cn(C)c3ccccc23)C(=O)N1C [Example 20120] ({CH2CO}-[Phe(4-F)][Pip]NP[Dap](Piv)L[Hyp]W[Dab][Trp(1-Me)][NMeNle][NMeNle]L[Pen]-NH2; thioether N-14) | 11.8

Now from value to compound:

IC50 [nM] | Compound
6.9 | CCCC[C@H]1C(=O)N(C)[C@@H](CCCC)C(=O)N[C@@H](CC(C)C)C(=O)N[C@H](C(N)=O)CSCC(=O)N[C@@H](Cc2ccc(F)cc2)C(=O)N2CCCC[C@H]2C(=O)N[C@@H](CC(=O)O)C(=O)N2CCC[C@H]2C(=O)N[C@@H](CNC(=O)OC(C)(C)C)C(=O)N[C@@H](CC(C)C)C(=O)N2C[C@H](O)C[C@H]2C(=O)N[C@@H](Cc2c[nH]c3ccccc23)C(=O)N[C@@H](CCNC(=O)OC(C)(C)C)C(=O)N[C@@H](Cc2cn(CC(=O)O)c3ccccc23)C(=O)N1C [Example 20020] ({CH2CO}-[Phe(4-F)][Pip]DP[Dap](Boc)L[Hyp]W[Dab](Boc)[Trp(1-CH2COOH)][NMeNle][NMeNle]LC-NH2; thioether N-14)
8.3 | CCCC[C@H]1C(=O)N(C)[C@@H](CCCC)C(=O)N[C@@H](CC(C)C)C(=O)N[C@H](C(N)=O)CSCC(=O)N[C@@H](Cc2ccc(F)cc2)C(=O)N2CCCC[C@H]2C(=O)N[C@@H](CC(=O)O)C(=O)N2CCC[C@H]2C(=O)N[C@@H](CNC(=O)C(C)(C)C)C(=O)N[C@@H](CC(C)C)C(=O)N2CCC[C@H]2C(=O)N[C@@H](Cc2c[nH]c3ccccc23)C(=O)N[C@@H](CCNC(=O)C(C)(C)C)C(=O)N[C@@H](Cc2cn(CC(=O)O)c3ccccc23)C(=O)N1C [Example 20040] ({CH2CO}-[Phe(4-F)][Pip]DP[Dap](Piv)LPW[Dab](Piv)[Trp(1-CH2COOH)][NMeNle][NMeNle]LC-NH2; thioether N-14)
10.4 | CCCC[C@H]1C(=O)N(C)[C@@H](CCCC)C(=O)N[C@@H](CC(C)C)C(=O)N[C@H](C(N)=O)CSCC(=O)N[C@@H](Cc2ccc(F)cc2)C(=O)N2CCCC[C@H]2C(=O)N[C@@H](CC(=O)O)C(=O)N2CCC[C@H]2C(=O)N[C@@H](CNC(=O)C(C)(C)C)C(=O)N[C@@H](CC(C)C)C(=O)N2C[C@H](O)C[C@H]2C(=O)N[C@@H](Cc2c[nH]c3ccccc23)C(=O)N[C@@H](CCN)C(=O)N[C@@H](Cc2cn(CC(=O)O)c3ccccc23)C(=O)N1C [Example 20050] ({CH2CO}-[Phe(4-F)][Pip]DP[Dap](Piv)L[Hyp]W[Dab][Trp(1-CH2COOH)][NMeNle][NMeNle]LC-NH2; thioether N-14)
10.5 | CCCC[C@H]1C(=O)N(C)[C@@H](CCCC)C(=O)N[C@@H](CCC(=O)O)C(=O)N[C@H](C(N)=O)CSCC(=O)N[C@@H](Cc2ccc(F)cc2)C(=O)N2CCCC[C@H]2C(=O)N[C@@H](CC(=O)O)C(=O)N2CCC[C@H]2C(=O)N[C@@H](CNC(=O)C(C)(C)C)C(=O)N[C@@H](CC(C)C)C(=O)N2C[C@H](O)C[C@H]2C(=O)N[C@@H](Cc2c[nH]c3ccccc23)C(=O)N[C@@H](CCNC(=O)C(C)(C)C)C(=O)N[C@@H](Cc2cn(CC(=O)O)c3ccccc23)C(=O)N1C [Example 20070] ({CH2CO}-[Phe(4-F)][Pip]DP[Dap](Piv)L[Hyp]W[Dab](Piv)[Trp(1-CH2COOH)][NMeNle][NMeNle]EC-NH2; thioether N-14)
11.1 | CCCC[C@H]1C(=O)N(C)[C@@H](CCCC)C(=O)N[C@@H](CC(C)C)C(=O)N[C@H](C(N)=O)CSCC(=O)N[C@@H](Cc2ccc(F)cc2)C(=O)N2CCCC[C@H]2C(=O)N[C@@H](CC(=O)O)C(=O)N2CCC[C@H]2C(=O)N[C@@H](CNC(=O)C(C)(C)C)C(=O)N[C@@H](CCCCN)C(=O)N2C[C@H](O)C[C@H]2C(=O)N[C@@H](Cc2c[nH]c3ccccc23)C(=O)N[C@@H](CCNC(=O)C(C)(C)C)C(=O)N[C@@H](Cc2cn(CC(=O)O)c3ccccc23)C(=O)N1C [Example 20090] ({CH2CO}-[Phe(4-F)][Pip]DP[Dap](Piv)K[Hyp]W[Dab](Piv)[Trp(1-CH2COOH)][NMeNle][NMeNle]LC-NH2; thioether N-14)
